The values below come from paper PMC4678601 (Chemical science (Royal Society of Chemistry : 2010), 2014).

Data set [1] concerns BBOX. Particulars: read-out: KM of BBOX for 2OG; cited from earlier work.
Data set [2] relates to histone demethylases (KDMs). In words: Selectivity panel of human 2OG oxygenases: histone demethylases. Type of data set: biochemical. Particulars: at 100 μM.
Data set [3] has as its system carnitine biosynthesis in HEK 293T cells. In words: LC-MS detection of carnitine levels in HEK 293T cells. The following applies: for Carnitine levels: control 100% (SEM ± 13%). The format is cell-based, human.
In a further data set the test system is HEK 293T cells. Briefly: Cytotoxicity in HEK 293T cells. Type of data set: cell-based, human. Particulars: up to concentrations of 0.5 mM.
Data set [4] deals with BBOX. Particulars: read-out: IC50 BBOX in vitro; cited from earlier work.
The target of data set [5] is T1, BBOX (Homo sapiens, UniProt O75936).
T1 sequence (O75936 1-387): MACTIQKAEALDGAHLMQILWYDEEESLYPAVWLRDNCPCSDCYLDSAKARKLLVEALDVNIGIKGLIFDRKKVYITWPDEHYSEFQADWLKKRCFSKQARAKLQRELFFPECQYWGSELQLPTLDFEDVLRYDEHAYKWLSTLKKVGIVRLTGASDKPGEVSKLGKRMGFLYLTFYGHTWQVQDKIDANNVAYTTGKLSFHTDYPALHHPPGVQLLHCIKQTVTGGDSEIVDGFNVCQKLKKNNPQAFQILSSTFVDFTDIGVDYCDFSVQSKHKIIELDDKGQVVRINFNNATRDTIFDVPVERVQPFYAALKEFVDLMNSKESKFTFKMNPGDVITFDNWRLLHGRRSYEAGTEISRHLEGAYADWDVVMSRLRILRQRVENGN
Briefly: Binding assay by quenching of the intrinsic fluorescence of BBOX.

Structures are written as SMILES.

Turning to `O=C(O)CCC(=O)C(=O)O` [2OG, 2-oxoglutarate], the Km with BBOX [1] is 160 µM.

As for `O=C(N[C@@H](CSCc1ccccn1)C(=O)O)c1ncccc1O` [AR692B], in data set [2], the “Activity against the tested KDMs” value is “inactive”. Moreover, in data set [3] (HEK 293T cells, 100 μM), the “Reduction in carnitine levels” value is listed as > 40%. In addition, the Carnitine levels in data set [3] (HEK 293T cells, 100 μM compound) was 57 ± 9 percentage of free carnitine l. In addition, in the data set on HEK 293T cells, the Cytotoxicity entry is recorded as “not cytotoxic”.

For the compound `C[N+](C)(C)CCCC(=O)[O-]` [GBB, γ-butyrobetaine], in data set [3] (cells, 20 μM), the “Reduction of carnitine levels” value is listed as ~ 50%.

As for `C[N+](C)(C)NCCC(=O)[O-]` [Mildronate], the Carnitine levels in data set [3] (HEK 293T cells, 20 μM compound) is given as 70 ± 6 percentage of free carnitine l; in data set [3] (HEK 293T cells, 50 μM compound), 37 ±10 percentage of free carnitine l. Further, the “Reduction of carnitine levels” value in data set [3] (HEK 293T cells, 50 μM) came to 63%; in data set [3] (cells, 20 μM), 30%. In addition, in data set [3] (HEK 293T cells, below 5 μM), the “Activity on carnitine levels” value was “not active”. For the same compound, the IC50 in the data set with BBOX [4] is 60 µM.

At BBOX [5], `O=C(O)CNC(=O)c1ncccc1O` [compound 1, (3-hydroxypicolinoyl)glycine] returned a Kd of 10.8 µM.
